Assay results reported in US6908920B2, “Pyrimidine derivatives” (AstraZeneca AB, priority 2000, dated 2005).

Molecular target: T1, CDK2/Cyclin E (Homo sapiens, UniProt P24941)
T1 construct: made in house; host or cells: Sf21 (Spodoptera frugiperda) insect cells, baculovirus co-infection, for CDK2/cyclin E. E. coli BL21 (DE3) pLysS for the GST-Rb substrate
Assay: in vitro kinase assay, Scintillation Proximity Assay, incorporation of [γ-33-P]-ATP into GST-Rb
Type: biochemical
Details: in-vitro SPA kinase assay, GST-Rb substrate, read-out: CDK2 inhibitory activity IC50
Description: The compounds were tested in an in vitro kinase assay in 96 well format using Scintillation Proximity Assay (SPA—obtained from Amersham) for measuring incorporation of [γ-33-P]-Adenosine Triphosphate into a test substrate (GST-Retinoblastoma protein; GST-Rb). In each well was placed the compound to be tested (diluted in DMSO and water to correct concentrations) and in control wells either roscovitine as an inhibitor control or DMSO as a positive control. […]
The plates were sealed with Topseal-S plate sealers, left for two hours then spun at 2500 rpm, 1124×g., for 5 minutes. The plates were read on a Topcount for 30 seconds per well. […]
E. coli paste was resuspended in 10 ml/g of NETN buffer (50 mM Tris pH 7.5, 120 mM NaCl, 1 mM EDTA, 0.5% v/v NP-40, 1 mM PMSF, 1 ug/mnl leupeptin, 1 ug/ml aprotinin and 1 ug/ml pepstatin) and sonicated for 2×45 seconds per 100 ml homogenate. […] The final product was analysed by Sodium Dodeca Sulfate (SDS) PAGE (Polyacrylamide gel) using 8-16% Tris-Glycine gels (Novex, San Diego, USA).
The open reading frames of CDK2 and Cyclin E were isolated by reverse transcriptase-PCR using HeLa cell and activated T cell mRNA as a template and cloned into the insect expression vector pVL1393 (obtained from Invitrogen 1995 catalogue number: V1392-20). […]

IC50: 148 nM
Structure (SMILES): CC(C)NCCCNS(=O)(=O)c1ccc(Nc2ncc(C#N)c(N3CCOCC3)n2)cc1 [Example 1, 5-Cyano-4-morpholino-2-{4-[N-(3-isopropylaminopropyl)sulphamoyl]anilino}pyrimidine]
